Assay results reported in ChEMBL document CHEMBL3046281, “Nitrogen Analogues of Aldrin as Noncompetitive Antagonists of GABAA Receptor” (J Pestic Sci, 1995).
Activity calls are given as the source filed them. The calls are words filed in the database; no cut-off is given here.

How the values were obtained:
Musca domestica = assay: Insecticidal activity against WHO susceptible Musca domestica (house fly) assessed as compound level causing mortality per fly applied through topical application; format: functional
[1] = molecular target: GABA-A receptor; anion channel (Rattus norvegicus) (UniProt O09028+P15431+P18506+P18508+P19969+P20236+P23574+P23576+P28471+P28473+P30191+P62813+P63079+P63138+Q91ZM7+Q9ES14); assay: Competitive inhibition of [35S]TBPS binding to gamma-aminobutyric acid type-A receptor in Rattus norvegicus (rat) brain membranes at 50 nM incubated for 90 min by Scatchard plot; details: Membrane
[2] = molecular target: GABA-A receptor; anion channel; assay: Displacement of [35S]TBPS from gamma-aminobutyric acid type-A receptor in Rattus norvegicus (rat) brain membranes incubated for 90 min by liquid scintillation counting method; parameters: species or system Membrane

Compound	LD50 (Musca domestica)	inhibition [1]	IC50 [2]
ClC1=C(Cl)[C@]2(Cl)[C@H]3[C@H]([C@@H]4C[C@H]3N=N4)[C@@]1(Cl)C2(Cl)Cl	2.8 ng	Active	48.4 nM
[O-][N+]1=N[C@@H]2C[C@H]1[C@H]1[C@@H]2[C@@]2(Cl)C(Cl)=C(Cl)[C@]1(Cl)C2(Cl)Cl (relative stereo)	3.1 ng	–	119 nM
ClC1=C(Cl)[C@]2(Cl)[C@@H]3[C@@H]4CC[C@@H](C4)[C@@H]3[C@@]1(Cl)C2(Cl)Cl [REL-ALDRIN]	18.5 ng	–	53.7 nM
